Laboratory results as given in patent publication US9040530B2, “1,2,4-triazine-6-carboxamide kinase inhibitors” (Portola Pharmaceuticals, Inc., priority 2012, dated 2015).

Target: T1, full length active recombinant SYK enzyme (Homo sapiens, UniProt P43405)
T1 construct: full length active recombinant SYK enzyme (Millipore, Calif.); purchased Millipore
Assay: Inhibition of Syk tyrosine phosphorylation activity (LANCE TR-FRET kinase assay)
Assay type: biochemical
Details: 1 nM active SYK enzyme, 550 nM SYK-substrate, 100 μM ATP, 1 hour at room temperature

SMILES | IC50
NC(=O)c1nnc(N[C@H](CC(F)F)C(N)=O)nc1Nc1ccc2ncccc2c1 [Example 150, (R)-3-((1-amino-4,4-difluoro-1-oxobutan-2-yl)amino)-5-(quinolin-6-ylamino)-1,2,4-triazine-6-carboxamide] | 1 to 10 nM
NC(=O)c1nnc(N[C@@H]2CCCC(F)(F)[C@@H]2N)nc1Nc1ccc(Cl)cc1 [Example 250, 3-(((1R,2R)-2-amino-3,3-difluorocyclohexyl)amino)-5-((4-chlorophenyl)amino)-1,2,4-triazine-6-carboxamide] | 100 to 1000 nM
NC(=O)c1nnc(N[C@@H]2CCCC[C@@H]2N)nc1Nc1ccc([N+]2([O-])CCCCC2)c(F)c1 [Example 32, 1-(4-((3-(((1R,2S)-2-aminocyclohexyl)amino)-6-carbamoyl-1,2,4-triazin-5-yl)amino)-2-fluorophenyl)piperidine 1-oxide] | 10 to 100 nM
NC(=O)c1nnc(N[C@@H]2CCCC[C@@H]2N)nc1Nc1ccc2ncccc2c1 [Example 47, 3-(((1R,2S)-2-aminocyclohexyl)amino)-5-(quinolin-6-ylamino)-1,2,4-triazine-6-carboxamide] | 1 to 10 nM
NC(=O)c1nnc(N[C@@H]2CCCC[C@@H]2N)nc1Nc1ccc2nccn2c1 [Example 44, 3-(((1R,2S)-2-aminocyclohexyl)amino)-5-(imidazo[1,2-a]pyridin-6-ylamino)-1,2,4-triazine-6-carboxamide] | 10 to 100 nM
CC[C@@H](Nc1nnc(C(N)=O)c(Nc2cc(Cl)c3ncccc3c2)n1)C(N)=O [Example 177, (R)-3-((1-amino-1-oxobutan-2-yl)amino)-5-((8-chloroquinolin-6-yl)amino)-1,2,4-triazine-6-carboxamide] | 1 to 10 nM
CC[C@@H](Nc1nnc(C(N)=O)c(Nc2ccc(-n3nccn3)cc2)n1)C(N)=O [Example 98, (R)-5-((4-(2H-1,2,3-triazol-2-yl)phenyl)amino)-3-((1-amino-1-oxobutan-2-yl)amino)-1,2,4-triazine-6-carboxamide] | 10 to 100 nM
CC[C@@H](Nc1nnc(C(N)=O)c(Nc2ccc3c(c2)CS(=O)(=O)C3)n1)C(N)=O [Example 220, (R)-3-((1-amino-1-oxobutan-2-yl)amino)-5-((2,2-dioxido-1,3-dihydrobenzo[c]thiophen-5-yl)amino)-1,2,4-triazine-6-carboxamide] | 10 to 100 nM
Cc1ccc(Nc2nc(N[C@H](CC(C)C)C(N)=O)nnc2C(N)=O)cc1 [Example 121, (R)-3-((1-amino-4-methyl-1-oxopentan-2-yl)amino)-5-(p-tolylamino)-1,2,4-triazine-6-carboxamide] | 10 to 100 nM
CC(C)C[C@@H](Nc1nnc(C(N)=O)c(Nc2ccc(Cl)cc2)n1)C(N)=O [Example 248, (R)-3-((1-amino-4-methyl-1-oxopentan-2-yl)amino)-5-((4-chlorophenyl)amino)-1,2,4-triazine-6-carboxamide] | 10 to 100 nM
